Data from patent US10770169B2, “Method of providing a treatment to a subject based on a dynamic pathway map” (THE REGENTS OF THE UNIVERSITY OF CALIFORNIA, priority 2010, dated 2020).
Where two headings read alike, the source gives them in different places.

Tested on: panel of 55 breast cancer cell lines
Experiment: Cell growth inhibition assay (Cell Titer Glo, 72 h, 9 doses; GI50, TGI, LC50)
Assay type: cell-based, human

With COc1cc(Nc2c(C#N)cnc3cc(OCCCN4CCN(C)CC4)c(OC)cc23)c(Cl)cc1Cl [Bosutinib] the GI50 (Homo sapiens, 600MPE cell line, censored GI50 values, read-out: GI50 (converted)) was 8910 nM, the GI50 (Homo sapiens, AU565, AU565 cell line, censored GI50 values, read-out: GI50 (converted)) was 2140 nM and the GI50 (Homo sapiens, AU565, cell line AU565, read-out: GI50 (converted)) was 2140 nM. It also gave a GI50 (Homo sapiens, BT-20, BT20 cell line, censored GI50 values, read-out: GI50 (converted)) of 1380 nM, a GI50 (Homo sapiens, BT-20, cell line BT20, read-out: GI50 (converted)) of 1380 nM and a GI50 (Homo sapiens, BT-474, BT474 cell line, censored GI50 values, read-out: GI50 (converted)) of 724 nM. The GI50 (Homo sapiens, BT-474, cell line BT474, read-out: GI50 (converted)) was 724 nM, the GI50 (Homo sapiens, BT-483, BT483 cell line, censored GI50 values, read-out: GI50 (converted)) was 3550 nM and the GI50 (Homo sapiens, BT-483, cell line BT483, read-out: GI50 (converted)) was 3550 nM. The GI50 (Homo sapiens, CAMA-1, CAMA1 cell line, censored GI50 values, read-out: GI50 (converted)) was 3240 nM, the GI50 (Homo sapiens, CAMA-1, cell line CAMA1, read-out: GI50 (converted)) was 3240 nM and the GI50 (Homo sapiens, HCC38, HCC38 cell line, censored GI50 values, read-out: GI50 (converted)) was 891 nM. For the same molecule, the GI50 (Homo sapiens, HCC38, cell line HCC38, read-out: GI50 (converted)) was 891 nM, the GI50 (Homo sapiens, HCC70, HCC70 cell line, censored GI50 values, read-out: GI50 (converted)) was 891 nM and the GI50 (Homo sapiens, HCC70, cell line HCC70, read-out: GI50 (converted)) was 891 nM. For the same molecule, the GI50 (Homo sapiens, HCC1143, HCC1143 cell line, censored GI50 values, read-out: GI50 (converted)) was 4900 nM, the GI50 (Homo sapiens, HCC1143, cell line HCC1143, read-out: GI50 (converted)) was 4900 nM and the GI50 (Homo sapiens, HCC1187, HCC1187 cell line, censored GI50 values, read-out: GI50 (converted)) was 3160 nM. The GI50 (Homo sapiens, HCC1187, cell line HCC1187, read-out: GI50 (converted)) was 3160 nM, the GI50 (Homo sapiens, HCC1419, HCC1419 cell line, censored GI50 values, read-out: GI50 (converted)) was 759 nM and the GI50 (Homo sapiens, HCC1419, cell line HCC1419, read-out: GI50 (converted)) was 759 nM. For the same molecule, the GI50 (Homo sapiens, HCC1428, HCC1428 cell line, censored GI50 values, read-out: GI50 (converted)) was 3890 nM, the GI50 (Homo sapiens, HCC1428, cell line HCC1428, read-out: GI50 (converted)) was 3890 nM and the GI50 (Homo sapiens, HCC1500, HCC1500 cell line, censored GI50 values, read-out: GI50 (converted)) was 2570 nM. The GI50 (Homo sapiens, HCC1500, cell line HCC1500, read-out: GI50 (converted)) was 2570 nM, the GI50 (Homo sapiens, HCC1806, HCC1806 cell line, censored GI50 values, read-out: GI50 (converted)) was 2090 nM and the GI50 (Homo sapiens, HCC1806, cell line HCC1806, read-out: GI50 (converted)) was 2090 nM. The GI50 (Homo sapiens, HCC1937, HCC1937 cell line, censored GI50 values, read-out: GI50 (converted)) was 1450 nM, the GI50 (Homo sapiens, HCC1937, cell line HCC1937, read-out: GI50 (converted)) was 1450 nM and the GI50 (Homo sapiens, HCC1954, HCC1954 cell line, censored GI50 values, read-out: GI50 (converted)) was 1170 nM. It also gave a GI50 (Homo sapiens, HCC1954, cell line HCC1954, read-out: GI50 (converted)) of 1170 nM, a GI50 (Homo sapiens, HCC2185 cell line, censored GI50 values, read-out: GI50 (converted)) of 5010 nM and a GI50 (Homo sapiens, HCC3153 cell line, censored GI50 values, read-out: GI50 (converted)) of 3800 nM. The GI50 (Homo sapiens, LY2 cell line, censored GI50 values, read-out: GI50 (converted)) was 2450 nM, the GI50 (Homo sapiens, MCF7, MCF7 cell line, censored GI50 values, read-out: GI50 (converted)) was 2570 nM and the GI50 (Homo sapiens, MCF7, cell line MCF7, read-out: GI50 (converted)) was 2570 nM. For the same molecule, the GI50 (Homo sapiens, MDA-MB-175-VII, MDAMB175VII cell line, censored GI50 values, read-out: GI50 (converted)) was 1070 nM, the GI50 (Homo sapiens, MDA-MB-361, MDAMB361 cell line, censored GI50 values, read-out: GI50 (converted)) was 1510 nM and the GI50 (Homo sapiens, MDA-MB-436, MDAMB436 cell line, censored GI50 values, read-out: GI50 (converted)) was 5010 nM. For the same molecule, the GI50 (Homo sapiens, MDA-MB-453, MDAMB453 cell line, censored GI50 values, read-out: GI50 (converted)) was 2340 nM, the GI50 (Homo sapiens, MDA-MB-468, MDAMB468 cell line, censored GI50 values, read-out: GI50 (converted)) was 2570 nM and the GI50 (Homo sapiens, SK-BR-3, SKBR3 cell line, censored GI50 values, read-out: GI50 (converted)) was 3890 nM. The GI50 (Homo sapiens, SUM52PE, SUM52PE cell line, censored GI50 values, read-out: GI50 (converted)) was 1450 nM, the GI50 (Homo sapiens, SUM149PT, SUM149PT cell line, censored GI50 values, read-out: GI50 (converted)) was 759 nM and the GI50 (Homo sapiens, SUM1315MO2, SUM1315MO2 cell line, censored GI50 values, read-out: GI50 (converted)) was 871 nM. For the same molecule, the GI50 (Homo sapiens, SUM-159-PT, SUM159PT cell line, censored GI50 values, read-out: GI50 (converted)) was 1380 nM, the GI50 (Homo sapiens, T47D, T47D cell line, censored GI50 values, read-out: GI50 (converted)) was 5620 nM and the GI50 (Homo sapiens, UACC-812, UACC812 cell line, censored GI50 values, read-out: GI50 (converted)) was 2750 nM. The GI50 (Homo sapiens, ZR-75-1, ZR751 cell line, censored GI50 values, read-out: GI50 (converted)) was 14100 nM, the GI50 (Homo sapiens, ZR-75B, ZR75B cell line, censored GI50 values, read-out: GI50 (converted)) was 7080 nM and the GI50 (Homo sapiens, cell line 600MPE, read-out: GI50 (converted)) was 8910 nM. For the same molecule, the GI50 (Homo sapiens, cell line HCC2185, read-out: GI50 (converted)) was 5010 nM, the GI50 (Homo sapiens, cell line HCC3153, read-out: GI50 (converted)) was 3800 nM and the GI50 (Homo sapiens, cell line LY2, read-out: GI50 (converted)) was 2450 nM.

In the case of CC(C)[C@H](CO)Nc1nc(Nc2cccc(Cl)c2)c2ncn(C(C)C)c2n1 [Purvalanol A], the GI50 (600MPE cell line, censored GI50 values, value is the negative log10 of mol/L) is reported as 4.52, the GI50 (AU565 cell line, censored GI50 values, value is the negative log10 of mol/L) is reported as 5.01 and the GI50 (BT20 cell line, censored GI50 values, value is the negative log10 of mol/L) is reported as 4.56. It also gave a GI50 (BT483 cell line, censored GI50 values, value is the negative log10 of mol/L) of 4.40, a GI50 (HCC202 cell line, censored GI50 values, value is the negative log10 of mol/L) of 3.99 and a GI50 (HCC1187 cell line, censored GI50 values, value is the negative log10 of mol/L) of 4.74. The GI50 (HCC1428 cell line, censored GI50 values, value is the negative log10 of mol/L) was 4.44, the GI50 (HCC1806 cell line, censored GI50 values, value is the negative log10 of mol/L) was 4.00 and the GI50 (HCC1937 cell line, censored GI50 values, value is the negative log10 of mol/L) was 4.97. The GI50 (HCC1954 cell line, censored GI50 values, value is the negative log10 of mol/L) was 4.43, the GI50 (HCC2185 cell line, censored GI50 values, value is the negative log10 of mol/L) was 4.57 and the GI50 (MCF7 cell line, censored GI50 values, value is the negative log10 of mol/L) was 4.80. The GI50 (MDAMB134VI cell line, censored GI50 values, value is the negative log10 of mol/L) was 4.26, the GI50 (MDAMB175VII cell line, censored GI50 values, value is the negative log10 of mol/L) was 4.46 and the GI50 (MDAMB468 cell line, censored GI50 values, value is the negative log10 of mol/L) was 4.12. For the same molecule, the GI50 (SKBR3 cell line, censored GI50 values, value is the negative log10 of mol/L) was 4.60, the GI50 (SUM52PE cell line, censored GI50 values, value is the negative log10 of mol/L) was 4.79 and the GI50 (SUM149PT cell line, censored GI50 values, value is the negative log10 of mol/L) was 4.88. It also gave a GI50 (SUM185PE cell line, censored GI50 values, value is the negative log10 of mol/L) of 4.69, a GI50 (SUM225CWN cell line, censored GI50 values, value is the negative log10 of mol/L) of 4.28 and a GI50 (SUM1315MO2 cell line, censored GI50 values, value is the negative log10 of mol/L) of 5.09. The GI50 (ZR751 cell line, censored GI50 values, value is the negative log10 of mol/L) was 4.01, the GI50 (cell line 600MPE, value is the negative log10 of mol/L) was 4.52 and the GI50 (cell line AU565, value is the negative log10 of mol/L) was 5.01. It also gave a GI50 (cell line BT20, value is the negative log10 of mol/L) of 4.56, a GI50 (cell line BT474, value is the negative log10 of mol/L) of 3.78 and a GI50 (cell line BT483, value is the negative log10 of mol/L) of 4.40. It also gave a GI50 (cell line BT549, value is the negative log10 of mol/L) of 3.78, a GI50 (cell line CAMA1, value is the negative log10 of mol/L) of 3.86 and a GI50 (cell line HCC70, value is the negative log10 of mol/L) of 3.78. It also gave a GI50 (cell line HCC202, value is the negative log10 of mol/L) of 3.99, a GI50 (cell line HCC1143, value is the negative log10 of mol/L) of 3.78 and a GI50 (cell line HCC1187, value is the negative log10 of mol/L) of 4.74. The GI50 (cell line HCC1395, value is the negative log10 of mol/L) was 3.78, the GI50 (cell line HCC1419, value is the negative log10 of mol/L) was 3.78 and the GI50 (cell line HCC1428, value is the negative log10 of mol/L) was 4.44. The GI50 (cell line HCC1500, value is the negative log10 of mol/L) was 3.95, the GI50 (cell line HCC1806, value is the negative log10 of mol/L) was 4.00 and the GI50 (cell line HCC1937, value is the negative log10 of mol/L) was 4.97. It also gave a GI50 (cell line HCC1954, value is the negative log10 of mol/L) of 4.43, a GI50 (cell line HCC2185, value is the negative log10 of mol/L) of 4.57 and a GI50 (cell line HCC3153, value is the negative log10 of mol/L) of 3.83. It also gave a GI50 (cell line MCF7, value is the negative log10 of mol/L) of 4.80, a GI50 (cell line MDAMB134V, value is the negative log10 of mol/L) of 4.26 and a GI50 (cell line MDAMB157, value is the negative log10 of mol/L) of 3.78. For the same molecule, the GI50 (cell line MDAMB175V, value is the negative log10 of mol/L) was 4.46, the GI50 (cell line MDAMB231, value is the negative log10 of mol/L) was 3.78 and the GI50 (cell line MDAMB361, value is the negative log10 of mol/L) was 3.78. For the same molecule, the GI50 (cell line MDAMB436, value is the negative log10 of mol/L) was 3.78, the GI50 (cell line MDAMB468, value is the negative log10 of mol/L) was 4.12 and the GI50 (cell line SKBR3, value is the negative log10 of mol/L) was 4.60. For the same molecule, the GI50 (cell line SUM52PE, value is the negative log10 of mol/L) was 4.79, the GI50 (cell line SUM149PT, value is the negative log10 of mol/L) was 4.88 and the GI50 (cell line SUM159PT, value is the negative log10 of mol/L) was 3.78. For the same molecule, the GI50 (cell line SUM185PE, value is the negative log10 of mol/L) was 4.69, the GI50 (cell line SUM225CWN, value is the negative log10 of mol/L) was 4.28 and the GI50 (cell line SUM1315MO, value is the negative log10 of mol/L) was 5.09. It also gave a GI50 (cell line T47D, value is the negative log10 of mol/L) of 3.78, a GI50 (cell line UACC893, value is the negative log10 of mol/L) of 3.78 and a GI50 (cell line ZR75B, value is the negative log10 of mol/L) of 3.78. It also gave a GI50 (cell line ZR751, value is the negative log10 of mol/L) of 4.01.
